Data taken from ChEMBL document CHEMBL3407455, “Discovery of highly potent, selective, and efficacious small molecule inhibitors of ERK1/2” (J Med Chem, 2015).

Columns and labels:
[1] = in vitro; conditions: dog, MDCK
[2] = in vivo; conditions: CD-1, mouse, po, 5 mg/kg
[3] = in vivo; conditions: CD-1, mouse, iv, 1 mg/kg
[4] = in vivo; conditions: CD-1, mouse, plasma, po, 5 mg/kg
[5] = in vivo; conditions: rat, plasma, po, 5 mg/kg
[6] = in vivo; conditions: nude, mouse, po, 150 mg/kg
[7] = in vivo; conditions: nude, mouse, po, 5 mg/kg
[8] = in vivo; conditions: nude, mouse, po, 30 mg/kg
[9] = in vivo; conditions: dog, po, 5 mg/kg
[10] = in vivo; conditions: cynomolgus monkey, po, 5 mg/kg
[11] = in vivo; conditions: cynomolgus monkey, po, 5 mg/kg; remark: listed apart in the source
[12] = in vivo; conditions: nude, mouse, po, 100 mg/kg
[13] = in vivo; conditions: cynomolgus monkey, po, 5 mg/kg; remark: listed apart in the source
[14] = in vivo; conditions: nude, mouse, plasma, po, 5 mg/kg
[15] = in vivo; conditions: rat, po, 5 mg/kg
[16] = in vivo; conditions: rat, iv, 1 mg/kg
[17] = in vivo; conditions: rat, po, 5 mg/kg; remark: listed apart in the source
[18] = in vivo; conditions: nude, mouse, po, 5 mg/kg; remark: listed apart in the source
[19] = in vivo; conditions: nude, mouse, po, 150 mg/kg; remark: listed apart in the source
[20] = in vivo; conditions: nude, mouse, iv, 1 mg/kg
[21] = in vivo; conditions: dog, plasma, po, 5 mg/kg
[22] = in vivo; conditions: nude, mouse, po, 5 mg/kg; remark: listed apart in the source
[23] = in vivo; conditions: dog, po, 5 mg/kg; remark: listed apart in the source
[24] = in vivo; conditions: dog, po, 5 mg/kg; remark: listed apart in the source
[25] = in vivo; conditions: nude, mouse, po, 30 mg/kg; remark: listed apart in the source
[26] = in vivo; conditions: dog, iv, 2 mg/kg
[27] = in vivo; conditions: nude, mouse, po, 150 mg/kg; remark: listed apart in the source
[28] = in vivo; conditions: nude, mouse, po, 100 mg/kg; remark: listed apart in the source
[29] = in vivo; conditions: nude, mouse, plasma, po, 100 mg/kg
[30] = in vivo; conditions: rat, po, 5 mg/kg; remark: listed apart in the source
[31] = in vivo; conditions: nude, mouse, plasma, po, 150 mg/kg
[32] = in vivo; conditions: cynomolgus monkey, plasma, po, 5 mg/kg
[33] = in vivo; conditions: cynomolgus monkey, iv, 2 mg/kg
[34] = in vivo; conditions: nude, mouse, plasma, po, 30 mg/kg
[35] = in vivo; conditions: nude, mouse, po, 100 mg/kg; remark: listed apart in the source

Work on `O=c1cc(-c2ccnc(NC3CCOCC3)n2)ccn1[C@H](CO)c1ccc(F)c(Cl)c1` yielded a Papp A→B [1] of 4.6 ×10⁻⁶ cm/s, a bioavailability [2] of 76% and a clearance [3] of 63 mL/min/kg. For the same compound, the AUC [4] was 2.18 µM·h.

In the case of `O=c1cc(-c2ccnc(NC3CCOCC3)n2)ccn1[C@H](CO)c1ccc(Cl)c(F)c1`, the AUC [5] was 2.15 µM·h, the half-life [6] was 1.97 h and the Cmax [7] was 3.12 µM. For the same compound, the Cmax [8] was 20.2 µM, the Papp A→B [1] was 11.3 ×10⁻⁶ cm/s and the bioavailability [9] was 46%. For the same compound, the half-life [10] was 2.39 h, the bioavailability [11] was 22% and the half-life [12] was 1.71 h. For the same compound, the Cmax [13] was 0.98 µM, the AUC [14] was 5.4 µM·h and the half-life [15] was 1.16 h. The clearance [16] was 39 mL/min/kg, the bioavailability [17] was 44% and the bioavailability [18] was 139%. It also gave a Cmax [19] of 67.7 µM, a bioavailability [2] of 66% and a clearance [20] of 40 mL/min/kg. It also gave an AUC [21] of 4.87 µM·h, a half-life [22] of 3.52 h and a half-life [23] of 1.55 h. It also gave a Cmax [24] of 2.91 µM, a half-life [25] of 2.33 h and a clearance [26] of 18 mL/min/kg. The clearance [3] was 33 mL/min/kg, the bioavailability [27] was 127% and the Cmax [28] was 38.9 µM. The AUC [4] was 3.05 µM·h, the AUC [29] was 129 µM·h and the Cmax [30] was 1.49 µM. For the same compound, the AUC [31] was 175 µM·h, the AUC [32] was 3.3 µM·h and the clearance [33] was 12 mL/min/kg. It also gave an AUC [34] of 46.8 µM·h and a bioavailability [35] of 139%.

With `O=c1cc(-c2ccnc(NC3CCOCC3)n2)ccn1[C@H](CO)c1cccc(F)c1` the Papp A→B [1] was 5.5 ×10⁻⁶ cm/s, the bioavailability [2] was 36% and the clearance [3] was 39 mL/min/kg. It also gave an AUC [4] of 1.72 µM·h.

Work on `O=c1cc(-c2ccnc(NC3CCOCC3)n2)ccn1[C@H](CO)c1cccc(Cl)c1` yielded a Papp A→B [1] of 8.5 ×10⁻⁶ cm/s, a bioavailability [2] of 38% and a clearance [3] of 114 mL/min/kg. It also gave an AUC [4] of 0.59 µM·h.
